# US8367727B2, “Method of using abscisic acid to treat diseases and disorders” (priority 2006, dated 2013)
# What was measured:
# [1] = target: T1, PPAR γ (Mus musculus, UniProt P37238); experiment: PPAR γ transactivation (luciferase reporter) in transfected 3T3-L1 pre-adipocytes; assay type: cell-based
# T1 construct: expressed in transfected cells; host or cells: 3T3-L1 pre-adipocytes (ATCC)
# T1 sequence (P37238 1-505): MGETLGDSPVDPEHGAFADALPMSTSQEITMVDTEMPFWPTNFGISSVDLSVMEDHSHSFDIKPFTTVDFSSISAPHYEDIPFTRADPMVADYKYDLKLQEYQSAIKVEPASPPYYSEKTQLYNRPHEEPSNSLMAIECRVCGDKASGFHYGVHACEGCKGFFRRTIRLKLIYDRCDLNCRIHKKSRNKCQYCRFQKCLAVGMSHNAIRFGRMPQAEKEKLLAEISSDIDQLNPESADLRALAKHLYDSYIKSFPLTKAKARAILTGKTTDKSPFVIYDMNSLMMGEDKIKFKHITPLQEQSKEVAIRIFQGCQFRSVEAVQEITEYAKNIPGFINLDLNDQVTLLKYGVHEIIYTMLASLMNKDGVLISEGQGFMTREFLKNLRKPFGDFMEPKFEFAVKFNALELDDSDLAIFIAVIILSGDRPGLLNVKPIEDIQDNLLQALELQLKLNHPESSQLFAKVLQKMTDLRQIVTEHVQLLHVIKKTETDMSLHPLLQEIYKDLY
# Method: Transformation plasmid DNA was performed using One Shot TOP10 (Invitrogen, Carlsbad, Calif.). Briefly, […] of the ligation reaction were added to a thawed 50 μl vial of One Shot® cells for each reaction. The vials were then set on ice for 30 minutes, followed by 30 seconds incubation in a 42° C. water bath. Afterwards, 250 μl of pre-warmed S.O.C medium was added to each vial. Vials were then secured on their sides in a microcentrifuge rack and were placed in a Gyromax 727 orbital shaking incubator (Amerex Instruments, Lafayette, Calif.) and incubated at 37° C. at 225 rpm. After 1 hour incubation, 100 μl of each transformation vial was spread on separate, labeled LB agar plates (Sigma-Aldrich, Milwaukee, Wis.), inverted, and incubated at 37° C. overnight. Colonies were selected and isolated using Plasmid Maxi Kit (Qiagen, Valencia, Calif.) according to manufacturer's instructions. After isolation, the plasmids were transfected into 3T3-L1 pre-adipocytes (American Type Culture Collection, Manassas, Va.) using the Targefect-BAC transfection kit. (Targeting Systems, Santee, Calif.). Briefly, 3T3-L1 cells were cultured in complete DMEM high glucose media (Invitrogen) at 37° C. for 2 days until confluence. After digestion with 2 ml trypsin (Mediatech, Herndon, Va.), the cells were resuspended in 6 ml high glucose DMEM (Mediatech) and then aliquoted into a 24 well plate. […] On the day of the reading, the cells were washed with 500 μl PBS and lysed with 100 μl lysis reagent (Promega, Madison, Wis.). After 15 minutes, lysed cells were collected and luciferase activity for each concentration was calculated using the Dual-Luciferase reporter assay system (Promega) and TD-20/20 Single-Tube Luminometer (Turner Biosystems, Sunnyvale, Calif.) according to manufacturers' instructions. Relative luciferase activity (RLA) was calculated as a ratio of the chemiluminescence 10 seconds after the Luciferase Assay Reagent II (Promega) was added over the chemiluminescence 10 seconds after the Stop&Glo Reagent (Promega). […]
# [2] = system: Total lymphocytes; experiment: Lymphocyte blastogenesis test (LBT); assay type: cell-based, mice; conditions: 100 mg ABA/kg diet
# Method: Single cell suspensions were prepared from the spleen by gently crushing the spleens excised during the necropsy procedure between the frosted ends of microscope glass slides previously autoclaved. Tissue debris were removed by settling, erythrocytes were eliminated by hypotonic lysis and cells finally resuspended in complete RPMI (cRPMI, 10% fetal bovine serum (Hyclone, Logan, Utah), 25 mM HEPES buffer (Sigma, St. Louis, Mo.), 100 units/ml penicillin (Sigma), […] streptomycin (Sigma), 1 mM sodium pyruvate (Sigma), 1 mM nonessential aminoacids (Sigma), and 2 mM essential amino acids (Mediatech), and enumerated with a Coulter Z1 Single Particle Counter (Beckman Coulter, Miami, Fla.).
# Wells of 96-well, round bottom microtiter plates were seeded with 2×10^5 splenocytes in a total volume of […] per well. Cells were cultured in cRPMI media with or without 2.5 μg/ml of Concanavalin A (Sigma) for 4 days. On day 4, […] of methyl-[^3Thymidine] was added to each well, and cells we incubate for 20 additional hours. Well contents were harvested onto glass fiber filters using cell harvester, and incorporated radioactivity measured by liquid scintillation counting. Samples were run in triplicate for each animal and ex-vivo treatment. Stimulation indices were calculated by dividing counts per minute of mitogen-stimulated wells by counts per minute of unstimulated wells.
# [3] = system: colon inflammatory gene expression; experiment: Colon gene expression by real-time quantitative PCR, DSS colitis; assay type: in vivo, mice
# Excerpt: Complementary DNA (cDNA) concentrations for genes of interest were examined by real-time quantitative PCR using an iCycler IQ System and the iQ SYBR green supermix (Bio-Rad). A standard curve was generated for each gene using 10-fold dilutions of purified amplicons starting at 5 pg of cDNA and used later to calculate the starting amount of target cDNA in the unknown samples. SYBR green I is a general double-stranded DNA intercalating dye and may therefore detect nonspecific products and primer/dimers in addition to the amplicon of interest. In order to determine the number of products synthesized during the real-time PCR, a melting curve analysis was performed on each product. Real-time PCR was used to measure the starting amount of nucleic acid of each unknown sample of cDNA on the same 96-well plate. Results are presented as starting quantity of target cDNA (picograms) per microgram of total RNA.
structure (smiles),measurement,setting,value
"CC1=CC(=O)CC(C)(C)C1(O)/C=C/C(C)=C\C(=O)O (racemic) [ABA, abscisic acid]",PPAR γ activity at 50 μM versus 10 μM,[1]; 50 μM ABA,No additional increase in PPAR γ activity
same,potency relative to rosiglitazone (times less potent),"[1]; in vitro, 3T3-L1",10 fold
same,ABA concentration at which relative luciferase activity begins to be significantly increased,"[1]; racemic ABA 1, 2.5, 5, 10, 50 μM, 24 hours",10 µM
same,LBT Total lymphocytes SI,[2],9.22
same,colonic expression of E-selectin,"[3]; ABA-supplementation, DSS",significantly lowered
same,colonic expression of ICAM-1,"[3]; ABA-supplementation, DSS",no affect
same,colonic expression of MAdCAM-1,"[3]; ABA-supplementation, DSS",significantly lowered
same,colonic expression of PECAM-1,"[3]; ABA-supplementation, DSS",no affect
same,colonic expression of VCAM-1,"[3]; ABA-supplementation, DSS",significantly lowered
same,colonic IL-6,[3]; ABA-treated mice,significantly attenuated levels
same,colonic MMP-9,[3]; ABA-treated mice,significantly attenuated levels
same,colonic iNOS,[3]; ABA-treated mice,significantly attenuated levels
same,"colonic PPAR γ, CD36 and FABP4 expression",[3]; colons of ABA-fed mice,"Neither colonic PPAR γ nor its responsive genes CD36, or FABP4 were significantly affected"
